The values that follow come from PubChem BioAssay AID504560 (Southern Research Specialized Biocontainment Screening …, 2011).

SMILES strings stand for the structures. pIC50: −log10 of the molar value.

The test concerns human PBMC HIV-1 CCR5-tropic replication, RT activity. The test can be described thus: inhibitors of CCR5-tropic HIV-1 replication in PBMCs, dose response, cell-based, human PBMC, set 2 (AID 504560).

Take `Cc1c2c(=O)n(-c3nc4ccccc4s3)nc-2cc(O)n1Cc1cccs1`: the pIC50 is 5.71.

As to `COc1ccc(Cn2c(O)cc3nn(-c4nc5ccccc5s4)c(=O)c-3c2C)cc1`, the pIC50 is 5.64.

For the molecule `Cc1c2c(=O)n(-c3nc4ccccc4s3)nc-2cc(O)n1Cc1ccccc1`, the pIC50 is 5.62.

On to `Cc1c2c(=O)n(-c3nc4ccccc4s3)nc-2cc(O)n1Cc1ccncc1`, for which the pIC50 is 5.72.

Consider `Cc1c2c(=O)n(-c3nc4ccccc4s3)nc-2cc(O)n1CCc1cccs1`, for which the pIC50 is 5.46.

`COc1ccc(CCn2c(O)cc3nn(-c4nc5ccccc5s4)c(=O)c-3c2C)cc1`: the pIC50 was 5.21.

Take `Cc1c2c(=O)n(-c3nc4ccccc4s3)nc-2cc(O)n1CCc1ccc(O)cc1`: the pIC50 was 5.82.

Turning to `COc1ccccc1Cn1c(O)cc2nn(-c3nc4ccccc4s3)c(=O)c-2c1C`, the negative-log IC50 (pIC50) was 5.27.

Take `Cc1c2c(=O)n(-c3nc4ccccc4s3)nc-2cc(O)n1CCC(C)C`: the pIC50 is 5.27.

For the molecule `Cc1c2c(=O)n(-c3nc4ccccc4s3)nc-2cc(O)n1Cc1ccccc1Cl`, the pIC50 was 5.20.

For `Cc1c2c(=O)n(-c3nc4ccccc4s3)nc-2cc(O)n1Cc1ccc(F)cc1`, the pIC50 is 5.50.

On to `Cc1c2c(=O)n(-c3nc4ccccc4s3)nc-2cc(O)n1C1CC1`, for which the pIC50 was 6.14.

In the case of `Cc1c2c(=O)n(-c3nc4ccccc4s3)nc-2cc(O)n1Cc1cccnc1`, the negative logarithm of the IC50 (pIC50) is 6.04.

Broadly, the pIC50 is the IC50 on a negative log10 scale, so that one unit is a factor of ten.
